Data published in patent US20220193068A1, “A GRK2 PROTEIN INHIBITOR COMPOUND AND A PHARMACEUTICAL COMPOSITION COMPRISING THE SAME” (CONSEJO NACIONAL DE INVESTIGACIONES CIENTÍFICAS Y TÉCNICAS …, priority 2019, published 2022).

How the values were obtained:
[1] = molecular target: T1, RGS domain of GRK2 (GRK2-K220R variant) (Bos taurus, UniProt P21146, K220R); experiment: cAMP response of rH2 to amthamine in HEK293 clones overexpressing rH2 and GRK2-K220R; format: cell-based; conditions: 40 min pretreatment, C2-C5 at 10 μM or 100 μM, L96B at 100 nM or 1 μM, 10 μM amthamine, *p<0.05
T1 construct: expressed in transfected cells
T1 sequence (P21146 1-689 K220R): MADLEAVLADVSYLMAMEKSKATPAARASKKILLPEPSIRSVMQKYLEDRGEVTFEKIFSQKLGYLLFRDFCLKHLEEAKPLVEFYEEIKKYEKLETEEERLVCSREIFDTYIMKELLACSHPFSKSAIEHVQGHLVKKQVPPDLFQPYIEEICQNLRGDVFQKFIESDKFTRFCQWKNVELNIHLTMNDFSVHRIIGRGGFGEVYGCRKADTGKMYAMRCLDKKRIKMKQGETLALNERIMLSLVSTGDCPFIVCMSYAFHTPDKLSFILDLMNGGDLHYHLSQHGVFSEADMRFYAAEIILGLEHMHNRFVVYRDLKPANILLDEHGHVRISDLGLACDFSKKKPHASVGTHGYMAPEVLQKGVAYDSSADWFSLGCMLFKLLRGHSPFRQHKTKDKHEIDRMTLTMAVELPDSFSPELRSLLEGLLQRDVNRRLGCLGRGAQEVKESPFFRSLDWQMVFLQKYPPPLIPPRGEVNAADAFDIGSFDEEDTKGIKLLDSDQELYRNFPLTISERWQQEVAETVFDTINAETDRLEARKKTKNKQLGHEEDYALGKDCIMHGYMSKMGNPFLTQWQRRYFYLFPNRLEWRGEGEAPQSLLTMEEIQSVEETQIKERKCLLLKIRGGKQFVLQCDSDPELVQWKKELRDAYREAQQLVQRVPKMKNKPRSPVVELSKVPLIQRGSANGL
From the text: In order to assess the effect of inhibitors of the RGS domain of GRK2, a cell model derived from HEK293 transfected cells was obtained. Such cells overexpress the histamine H2 receptor (rH2), a G-protein coupled receptor (GPCR) of the Gs type that, when activated, promotes cAMP synthesis and which is inactivated by regulatory domain-mediated desensitization of G-protein stimulation (RGS) of GRK2. The clone obtained not only overexpresses rH2 but also overexpresses a negative dominant mutant of GRK2, the GRK2-K220R variant, which cannot phosphorylate GPCRs but can inactivate them through its RGS domain. In this system, the desensitizing effect of the RGS domain of GRK2 on the cAMP response of rH2 is evident.
Clones derived from HEK293 cells were obtained by stable and sequential transfection with pcDNA3.1Zeo(+)-HARH2 and pcDNA3-GRK2K22OR plasmids using K2 Transfection System (BIONTEX) reactive, following manufacturer's instructions and using, for a 35 mm diameter plate, a mixture A of 2.7 μg of total DNA and 150 μl of DMEM base and a mixture B of 6 μl of K2 transfection reactive and 150 μl of base DMEM. The following day, cells were plated in 96-well plates with 0.3 ml of complete DMEM per well. For clone selection, cells were incubated in selection agent-supplemented medium (50 μg/ml Zeocine or 1.2 mg/ml geneticin), following a limit dilution protocol. According to this protocol, cells were counted and plated performing serial dilutions, so as to obtain wells with con 1000, 100, 10 and 1 cell. The medium was renewed every other day by replacing 100 μl in each well with 100 μl of fresh medium of the same composition. After three weeks, several antibiotic-resistant clones were selected and afterwards plasmid expression was analyzed by Western blot.
Adhered clones were maintained in a humidified-atmosphere oven, with 5% CO2 at 37° C., in 10% FBS-supplemented DMEM medium, 50 μg/ml gentamicin, 0.8 mg/ml geneticin and 50 μg/ml zeocin. Cells were passed by adding 0.05% trypsin solution and 0.3 mM EDTA.
In order to assess the effect of GRK2 inhibitor compounds, clones were plated in 48-well plates at 50% confluence. […]
Next, cells were incubated for 3 min with 1 mM IBMX, a phosphodiesterase inhibitor that prevents degradation of the cAMP produced and afterwards the rH2-Gαs-adenylate-cyclase-cAMP signaling route was stimulated for 9 minutes with the rH2-specific agonist, amthamine, at a 10 μM concentration. […] This was evaporated and cAMP levels were determined.
cAMP in samples was quantified by adapting the linking protein-binding technique according to Davio et al, 1995.

[2] = test system: GRK2K220R/R106A (mutated RGS domain); experiment: Selectivity control: cAMP response of rH2 in HEK293 clones overexpressing rH2 and GRK2K220R/R106A; format: cell-based; conditions: 10 μM amthamine, no significant differences
Procedure: In order to assess specificity of the effect of compounds over RGS domain of GRK2, assays were carried out in a second system that overexpresses rH2 and GRK2K220R/R106A, a GRK2 double mutant negative dominant construct that lacks both kinase activity and desensitization action through RGS domain. […] The R106A mutation that inactivates the RGS domain is redundant to the effect of an inhibitory potential, thus constituting the selectivity control of the model and allowing to determine if the enhancement in the receiver response occurred as a result of an inhibition of the RGS domain, or if it was the result of a non-specific action of the compound on an unwanted target. Those compounds that also raise cAMP levels in this control system are considered to be of non-specific action.
Since the latter mutation is redundant to the effect of a potential inhibitor of RGS domain of GRK2, this system allows us to discern whether the enhancement in the rH2 response occurred as a result of an RGS domain inhibition, or whether it resulted from a non-specific action of the compound on an unwanted target.

HEPG2 cell line [3] = experiment: Viability of human hepatocyte HEPG2 cells, trypan blue exclusion; conditions: 48 hours, 0.33 μM to 200 μM, versus DMSO control, C2 effect as from 10 μM
HEPG2 cell line [4] = test system: HEPG2 cell line

For `O=C(Cc1n[nH]c(=O)c2ccccc12)Nc1cccc2ncccc12` [C5, 2-(4-oxo-3,4-dihydrophthalazin-1-yl)-N-(quinoline-5-yl)acetamide], the “effect on H2 receptor capacity of response (cAMP)” value (shortened to “effect on H2 receptor capacity”) [1] was “enhancing effect” and the “effect over rH2 capacity of response (cAMP) with GRK2 mutated in the RGS domain” value (from here on “effect over rH2 capacity of response”) [2] was “lack of effect”.

For `COC(=O)c1ccc(NC(=O)c2ccc3ccccc3c2)cc1` [L96B, methyl 4-(naphthalene-2-amido)benzoate], the “cytotoxicity / cell viability” value (HEPG2 cell line [3]) was “did not affect cell viability”.

For `Cc1ccc2cc(C(=O)Nc3cccc(-c4nnco4)c3)c(C)nc2c1` [C3, 2,7-dimethyl-N-[3-(1,3,4-oxadiazol-2-yl)phenyl] quinoline-3-carboxamide], the “effect on H2 receptor capacity” value [1] was “enhancing effect” and the “effect over rH2 capacity of response” value [2] was “lack of effect”.

`O=C(Nc1ccc(-c2nnco2)cc1)c1cnc2ccccc2c1` [L94C, N-[4-(1,3,4-oxadiazol-2-yl)phenyl]quinoline-3-carboxamide] showed a melting point of 202 °C.

In the case of `CC(=O)N1CCc2cc(NC(=O)Nc3cccc4cccnc34)ccc21` [C2, 3-(1-acetyl-2,3-dihydro-H-indol-5-yl)-1-(quinoline-8-yl)urea], the “effect on H2 receptor capacity” value [1] is reported as “enhancing effect”, the “effect over rH2 capacity of response” value [2] is reported as “lack of effect” and the EC50 (HEPG2 cell line [4]) is reported as 10.3 µM.

In the case of `O=C(CCc1ccc2ccccc2c1)N1CCCC(n2cccn2)C1` (centres unmarked) [C4, 3-(naphtalen-2-yl)-1-[3-(1H-pyrazol-1-yl)piperidin-1-yl]propan-1-one], the “effect on H2 receptor capacity” value [1] is reported as “enhancing effect” and the “effect over rH2 capacity of response” value [2] is reported as “lack of effect”.
